{"source": "patent US10206907B2", "about": "“Compounds useful for the treatment of degenerative and inflammatory diseases” (GALAPAGOS NV, priority 2008, dated 2019)", "tested_on": "Collagen antibody-induced arthritis", "test": "MAB model (collagen antibody-induced arthritis)", "format": "in vivo, mouse", "conditions": "30 mg/kg p.o., DBA/J mice", "procedure": "The MAB model allows a rapid assessment of the modulation of an RA-like inflammatory response by therapeutics ([…]. Nature Protocols (2006) 2512-2516: Collagen antibody-induced arthritis). DBA/J mice were injected i.v. with a cocktail of mAbs directed against collagen II. One day later, compound treatment was initiated (vehicle: 10% (v/v) HPβCD). Three days later, mice received an i.p. LPS injection (50 μg/mouse), resulting in a fast onset of inflammation. Compound treatment was continued until 10 days after the mAb injection. Inflammation was read by measuring paw swelling and recording the clinical score of each paw. The cumulative clinical arthritis score of four limbs was presented to show the severity of inflammation. A scoring system is applied to each limb using a scale of 0-4, with 4 being the most severe inflammation. • 0 Symptom free • 1 Mild, but definite redness and swelling of one type of joint such as the ankle or wrist, or apparent redness and swelling limited to individual digits, regardless of the number of affected digits • 2 Moderate redness and swelling of two or more types of joints • 3 Severe redness and swelling of the entire paw including digits • 4 Maximally inflamed limb with involvement of multiple joints"}
{"smiles": "N#Cc1ccc(COc2ccc(-c3cccc4nc(NC(=O)C5CC5)nn34)cc2)cn1", "note": "[Compound 176, N-(5-(4-((6-cyanopyridin-3-yl)methoxy)phenyl)-[1,2,4]triazolo[1,5-a]pyridin-2-yl)cyclopropanecarboxamide]", "values": [{"measurement": "clinical score", "value": "reduced the clinical score with statistical significance"}, {"measurement": "inflammation", "value": "significantly reduced inflammation"}]}
